Source: PMC10314922, “Fluorescence lifetime FRET assay for live-cell high-throughput screening of the cardiac SERCA pump yields multiple classes of small-molecule allosteric modulators” (Scientific Reports, 2023)
Entries after “also recorded” stand apart in the source; their conditions may differ.

Legend:
[1] = target: T1, human two-color SERCA2a (2CS) biosensor (Homo sapiens, UniProt P16615, INS508[…]); assay: FRET concentration response curves (FLT-FRET) with the 2CS biosensor in live HEK cells; assay type: cell-based
T1 construct: expressed in transfected cells
Description: A two-color intramolecular human SERCA2a (2CS) biosensor, based on human cardiac SERCA2a fused to green fluorescent protein (eGFP) and red fluorescent protein (tagRFP) was developed to detect structural changes that are related to the functional changes of SERCA[20],[22],[25]. Briefly, tagRFP was genetically fused to the N-terminus of SERCA (A-domain) and eGFP was inserted as an intrasequence tag before residue 509 in the nucleotide-binding domain (N-domain)[60],[61]. Donor-only and acceptor-only (1CS) biosensors were created in a similar manner as the 2CS biosensor but with the construct containing either only eGFP or only tag-RFP, respectively. […] A null-biosensor construct consisting of eGFP and tagRFP connected by a 32-residue unstructured flexible linker peptide (G32R) was created as described previously[23],[25]. All constructs were cloned into expression vectors containing the genes for antibiotic resistance to G418, puromycin, or blasticidin.
Stable cell lines were generated using either human embryonic kidney (HEK) HEK293 (ATCC, Manassas, VA) or HEK293-6E (National Research Council, Canada) cells. Briefly, cells were transiently transfected with 2CS, 1CS, or G32R null-biosensor plasmids using Lipofecatime 3000 or 293fectin (Thermo Fisher Scientific). Flow cytometry was used to select and enrich for the population of cells expressing respective biosensors. Stable HEK293 cell lines were maintained in phenol red-free DMEM media (Gibco, Waltham, MA) supplemented with 2 mM GlutaMAX (Gibco, Waltham, MA), 10% fetal bovine serum (FBS) (Atlanta Biologicals, Lawrenceville, GA), 1 IU/mL penicillin/streptomycin (Gibco, Waltham, MA), and 250 μg/mL G418 (Fisher Scientific). Stable HEK293-6E cell lines were maintained in F17 media (Sigma Aldrich) supplemented with Kolliphor p188 (Sigma Aldrich, St. Louis, MO), […] GlutaMAX, and either 1 μg/mL puromycin (Invitrogen, Carlsbad, CA) or 2 μg/mL blasticidin (Goldbio) as a selection antibiotic. All cell lines were grown at 37 °C with 5% CO2.
FRET CRC assay plates (0.78–100 μM compound range) with at least ten different compound concentrations were made by adding the appropriate volume of compound or DMSO into black 384 well plates (Greiner Bio-One) using a Mosquito HV (SPTLabTech, United Kingdom). Subsequent Ca^2+-ATPase activity and Ca^2+-transport CRC assay plates (0–50 μM compound range) with repurchased compounds were made in a similar manner using with the Echo 550 (Beckman Coulter) using either 384 well transparent plates (Greiner Bio-One) or black-walled plates with transparent bottoms (Greiner Bio-One), respectively.
On each day of screening, cells were harvested, washed three times with PBS, and centrifuged at 300 g for 5 min. Cells were filtered using a 70 µm cell strainer and diluted to 1–2 × 10^6 cells/mL. Cell concentration and viability were assessed using the Cell countess (Invitrogen) and trypan blue assay. During assays, cells were constantly and gently stirred using a magnetic stir bar at room temperature, keeping the cells in suspension and evenly distributed to avoid clumping. HEK 293-cells expressing 2CS were dispensed at 5 μL or […] per well into assay plates (dispensed into 40 assay plates, each containing 1536 wells) pre-plated with compounds (from a DIVERset 50,000 compound library) using a Multdrop Combi liquid dispenser (Thermo Fisher Scientific, Pittsburg, PA) and sealed until needed. Because the kinetics of membrane permeability, diffusion, and/or binding of the compound to live cells may be compound-dependent, we tested two incubation times, 20 min and 120 min, for the FRET CRC. […] Plates containing eight-point concentration curves of three tool compounds (known SERCA effectors thapsigargin, BHQ, and CPA)[22] were used as positive controls for biosensor function and performance prior to running the full-scale FRET-HTS assay. […]

SERCA2a [2] = target: T2, SERCA2a (Sus scrofa, UniProt P11607); assay: NADH-linked Ca2+-ATPase activity assay in pig cardiac SR (pCSR) vesicles; assay type: biochemical; details: for Ca2+-ATPase C10: concentration yielding 10% effect
T2 construct: Cardiac SR vesicles were isolated from fresh porcine left ventricular tissue using differential centrifugation; from tissue; host or cells: porcine left ventricular tissue (cardiac SR vesicles)
Experimental: (§1) Cardiac SR vesicles were isolated from fresh porcine left ventricular tissue using differential centrifugation of the homogenized tissue as previously described. The SR vesicles were flash-frozen and stored at − 80 °C until needed. The SERCA concentration in the ER preparations purified from HEK cell homogenate is at least 10 times less than in purified porcine cardiac SR[20], but there was sufficient expression of the fluorescent SERCA2a biosensor in HEK cells to detect FRET with high precision by FLT[22],[23],[26].
Functional assays were performed using porcine cardiac SR (pCSR) vesicles. An enzyme-coupled, NADH-linked ATPase assay was used to measure SERCA ATPase activity in 384-well microplates. Each well contained 50 mM MOPS (pH 7.0), 100 mM KCl, 1 mM EGTA, 0.2 mM NADH, 1 mM phosphoenol pyruvate, 10 IU/mL of pyruvate kinase, 10 IU/mL of lactate dehydrogenase, 7 µM of the calcium ionophore A23187 (Sigma), and CaCl2 was added to set free [Ca^2+] to three different concentrations. Ca^2+-ATPase activity was measured at three [Ca^2+]: [Ca^2+]MAX (saturating, pCa 5.4), [Ca^2+]MID (subsaturating, midpoint, pCa 6.2), and [Ca^2+]BAS (basal non-activating, pCa 8.0). 10 μg/mL of SR vesicle, calcium, compound (0.048 to 50 μM), and assay mix were incubated for 20 min at room temperature before measurement of functional assays with each of the 18 hit compounds, because a shorter incubation time than the FRET live-cell assays achieved optimal responses. The assay was started upon the addition of MgATP, at a final concentration of 5 mM (total volume to 80 μL), and absorbance was read at 340 nm in a SpectraMax Plus^384 microplate spectrophotometer (Molecular Devices, Sunnyvale, CA).
(§2) SERCA2a activity, F (rate of ATP hydrolysis or Ca^2+ uptake), was measured at varying pCa and varying compound concentration. F measured at [Ca^2+]MAX (saturating, pCa 5.4) or [Ca^2+]MID (subsaturating, midpoint, pCa 6.2) was corrected by subtracting the basal rate at pCa 8.0) and the % effect due to compound was reported. Concentration response curves (CRC) were fitted using the Hill function to determine VMAX (the activity at saturating [compound]), and EC50, the compound concentration at 50% effect.

SERCA2a [3] = target: T2, SERCA2a; assay: Oxalate-supported Fluo-4 Ca2+-uptake (Ca2+-transport) assay in pig cardiac SR (pCSR) vesicles; assay type: biochemical; details: for Ca2+-Uptake C10: concentration yielding 10% effect; for CR (coupling ratio) VU/VA: maximum Ca2+-uptake rate / Ca2+-ATPase rate at [Ca2+]MAX, DMSO control = 0.66
Experimental: as §1
Ca^2+-transport assays were performed with similar porcine SR samples as in the Ca^2+-ATPase assays described above. The compound effect on the Ca^2+-transport activity of SERCA2a was determined using an oxalate-supported assay in which the change in fluorescence in a Ca^2+-sensitive dye, Fluor-4, was determined as previously described. A buffered solution containing 50 mM MOPS (pH 7.0), 100 mM KCl, 30 mg/mL sucrose, 1 mM EGTA, 10 mM potassium oxalate, 2 µM Fluo-4, 30 µg/mL porcine cardiac SR vesicles, CaCl2 calculated to reach the free [Ca^2+] (pCa 8.0, 6.2, and 5.4), and compound (0.048 to 50 μM) was dispensed into 384-well black walled, transparent bottomed plates (Greiner Bio-One) containing the tested small molecule and incubated at 22℃ for 20 min while covered and protected from light. To start the reaction, MgATP was added to a final concentration of 5 mM, and the decrease in 485-nm excited fluorescence of Fluo-4 was monitored at 520 nm for 15 min using a FLIPR Tetra (Molecular Devices, San Jose, CA).
as §2

[4] = both [Ca2+], stated as size of decrease

T2 sequence (P11607 1-997 isoform P11607-2): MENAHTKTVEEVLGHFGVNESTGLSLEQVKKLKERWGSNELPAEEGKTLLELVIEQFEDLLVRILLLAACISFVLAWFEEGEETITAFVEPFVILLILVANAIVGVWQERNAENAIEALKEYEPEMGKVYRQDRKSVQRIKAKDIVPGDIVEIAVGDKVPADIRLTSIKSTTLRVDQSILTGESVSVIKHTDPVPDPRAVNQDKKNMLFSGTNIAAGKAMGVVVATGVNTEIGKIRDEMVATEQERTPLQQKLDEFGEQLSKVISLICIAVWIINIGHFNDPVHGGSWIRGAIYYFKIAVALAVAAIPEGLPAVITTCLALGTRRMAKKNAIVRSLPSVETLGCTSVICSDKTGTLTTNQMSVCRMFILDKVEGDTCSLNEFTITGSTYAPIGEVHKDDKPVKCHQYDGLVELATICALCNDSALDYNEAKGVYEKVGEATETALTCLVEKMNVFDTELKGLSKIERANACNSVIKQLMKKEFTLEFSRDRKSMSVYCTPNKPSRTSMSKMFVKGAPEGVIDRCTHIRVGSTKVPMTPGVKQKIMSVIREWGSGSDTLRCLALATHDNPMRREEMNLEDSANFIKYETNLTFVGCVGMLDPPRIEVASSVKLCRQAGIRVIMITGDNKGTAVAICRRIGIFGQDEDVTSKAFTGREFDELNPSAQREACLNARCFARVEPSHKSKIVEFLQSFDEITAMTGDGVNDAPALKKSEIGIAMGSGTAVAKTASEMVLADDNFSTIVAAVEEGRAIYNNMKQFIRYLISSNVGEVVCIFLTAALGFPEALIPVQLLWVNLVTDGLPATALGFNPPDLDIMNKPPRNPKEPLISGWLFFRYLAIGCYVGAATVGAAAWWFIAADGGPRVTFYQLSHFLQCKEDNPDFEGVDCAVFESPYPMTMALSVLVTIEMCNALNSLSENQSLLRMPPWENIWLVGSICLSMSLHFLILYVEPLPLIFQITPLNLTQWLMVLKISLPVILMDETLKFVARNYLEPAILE
T1 sequence (P16615 other isoform, or with tags, fused parts or gaps with the stated changes): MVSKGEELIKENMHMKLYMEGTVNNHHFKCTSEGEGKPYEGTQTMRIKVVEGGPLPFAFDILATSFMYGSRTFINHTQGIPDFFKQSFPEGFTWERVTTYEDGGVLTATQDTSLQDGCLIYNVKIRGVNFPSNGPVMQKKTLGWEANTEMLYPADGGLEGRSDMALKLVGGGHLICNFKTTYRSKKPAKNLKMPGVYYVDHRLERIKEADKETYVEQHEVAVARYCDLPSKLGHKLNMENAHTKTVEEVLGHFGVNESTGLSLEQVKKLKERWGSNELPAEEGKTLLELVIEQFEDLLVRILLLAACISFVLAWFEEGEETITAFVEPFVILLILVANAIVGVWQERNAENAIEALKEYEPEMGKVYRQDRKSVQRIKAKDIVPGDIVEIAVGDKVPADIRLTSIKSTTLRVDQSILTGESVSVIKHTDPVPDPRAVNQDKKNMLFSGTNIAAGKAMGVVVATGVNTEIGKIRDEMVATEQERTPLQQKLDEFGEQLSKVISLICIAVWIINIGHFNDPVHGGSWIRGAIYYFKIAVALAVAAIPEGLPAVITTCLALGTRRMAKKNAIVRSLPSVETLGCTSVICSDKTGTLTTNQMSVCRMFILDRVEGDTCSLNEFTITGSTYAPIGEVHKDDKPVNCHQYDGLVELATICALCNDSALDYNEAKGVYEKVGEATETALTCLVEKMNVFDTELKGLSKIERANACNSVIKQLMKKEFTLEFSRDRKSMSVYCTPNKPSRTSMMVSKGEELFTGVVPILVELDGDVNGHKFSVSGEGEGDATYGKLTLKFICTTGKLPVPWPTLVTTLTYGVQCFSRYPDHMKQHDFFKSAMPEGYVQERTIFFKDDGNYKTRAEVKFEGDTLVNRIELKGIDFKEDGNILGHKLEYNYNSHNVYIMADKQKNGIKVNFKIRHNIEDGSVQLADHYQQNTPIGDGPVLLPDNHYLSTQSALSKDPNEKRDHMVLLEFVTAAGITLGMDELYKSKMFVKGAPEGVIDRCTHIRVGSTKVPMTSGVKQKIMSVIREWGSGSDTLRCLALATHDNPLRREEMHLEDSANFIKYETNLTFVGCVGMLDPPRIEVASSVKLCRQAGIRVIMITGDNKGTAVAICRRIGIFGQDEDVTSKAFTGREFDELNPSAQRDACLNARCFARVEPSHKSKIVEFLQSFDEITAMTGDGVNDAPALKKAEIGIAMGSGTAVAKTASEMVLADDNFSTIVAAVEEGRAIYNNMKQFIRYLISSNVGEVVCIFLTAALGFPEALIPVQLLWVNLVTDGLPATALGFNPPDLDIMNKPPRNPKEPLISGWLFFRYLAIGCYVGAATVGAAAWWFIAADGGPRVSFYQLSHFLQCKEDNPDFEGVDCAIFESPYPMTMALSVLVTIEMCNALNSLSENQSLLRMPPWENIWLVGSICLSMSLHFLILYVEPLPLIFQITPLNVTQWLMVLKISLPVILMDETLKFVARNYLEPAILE

Row | Structure (SMILES) | EC50 [1] | Ca2+-ATPase C10 (SERCA2a [2]; [Ca2+]MAX (pCa5.4)) | Ca2+-ATPase C10 (SERCA2a [2]; [Ca2+]MID (pCa6.2)) | EC50 (SERCA2a [3]; [Ca2+]MAX (pCa5.4)) | Ca2+-Uptake C10 (SERCA2a [3]; [Ca2+]MAX (pCa5.4)) | EC50 (SERCA2a [3]; [Ca2+]MID (pCa6.2)) | Ca2+-Uptake C10 (SERCA2a [3]; [Ca2+]MID (pCa6.2)) | CR (coupling ratio) VU/VA (SERCA2a [3]) | Inhibition of Ca2+-uptake (class) (SERCA2a [3]; strong / moderate / mild) | EC50 (SERCA2a [2]; [Ca2+]MAX (pCa5.4)) | EC50 (SERCA2a [2]; [Ca2+]MID (pCa6.2)) | Decrease of ΔFMAX and ΔFMID for Ca2+-ATPase activity (SERCA2a [2]; [4]) | Decrease of ΔFMAX and ΔFMID for Ca2+-uptake (SERCA2a [3]; [4])
1 | OCC1(CCOc2ccccc2)CCCN(Cc2cc3c(cc2Cl)OCO3)C1 (centres unmarked) [Compound 13, [1-[(6-chloro-1,3-benzodioxol-5-yl)methyl]-3-(2-phenoxyethyl)-3-piperidinyl]methanol] | 9.9 ± 2.1 µM | 1 µM | 1.6 µM | 3.6 ± 0.1 µM | 0.5 µM | 6.4 ± 0.2 µM | 1.0 µM |  |  |  |  |  | 
2 | CCc1cnc(N2CC[C@@H](c3ccc4ccccc4c3)[C@H](O)C2)nc1 (relative stereo) [Compound 16, (3S*,4S*)-1-(5-ethylpyrimidin-2-yl)-4-(2-naphthyl)piperidin-3-ol] | 5.6 ± 0.3 µM | 0.5 µM | 4.7 µM |  | 1.2 µM |  | 4.2 µM | 0.22 | M → S; also recorded: moderate-to-strong |  |  |  | 
3 | COC(=O)CSc1ncc(-c2ccc(F)cc2)c(C2CCCN(C(=O)c3cccc(F)c3)C2)n1 (centres unmarked) [Compound 11, methyl {[4-[1-(3-fluorobenzoyl)-3-piperidinyl]-5-(4-fluorophenyl)-2-pyrimidinyl]thio}acetate] | 14 ± 6.4 µM | 0.8 µM | 1.2 µM | 1.8 ± 0.04 µM | 0.2 µM | 2.8 ± 0.1 µM | 0.5 µM | 0.13 |  | 3.2 ± 0.4 µM | 3.6 ± 0.5 µM |  | 
4 | O=S(=O)(NCc1ccccc1)N1CCc2ccc(C(F)(F)F)cc2C1 [Compound 17, N-benzyl-7-(trifluoromethyl)-3,4-dihydroisoquinoline-2(1H)-sulfonamide] | 32 ± 5.3 µM | 6.2 µM | 5 µM |  | 1 µM |  | 2.2 µM | 0.09 |  |  |  | ~ 50% | 70–95%
